# From PubChem BioAssay (NCI)
#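 Compound exposure: 48 hours, 5 concentrations, 96-well plates. GI50 is the concentration that inhibits growth by half. TGI: concentration producing complete growth inhibition.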
# Legend:
# Assay in all cases: inhibition of tumour cell growth, NCI panel, 48 h
# NCI/ADR-RES ovarian = system: NCI/ADR-RES ovarian
# OVCAR-3 ovarian = system: OVCAR-3 ovarian
# LOX IMVI melanoma = system: LOX IMVI melanoma
# HCC-2998 colon = system: HCC-2998 colon
# UACC-257 melanoma = system: UACC-257 melanoma
# TK-10 renal = system: TK-10 renal
# M14 melanoma = system: M14 melanoma
# A549 NSCLC = system: A549 NSCLC
# IGROV1 ovarian = system: IGROV1 ovarian
# EKVX NSCLC = system: EKVX NSCLC
# COLO 205 colon = system: COLO 205 colon
# SF-295 CNS = system: SF-295 CNS
# K-562 leukemia = system: K-562 leukemia
# SF-539 CNS = system: SF-539 CNS
# BT-549 breast = system: BT-549 breast
# OVCAR-5 ovarian = system: OVCAR-5 ovarian
# T-47D breast = system: T-47D breast
# NCI-H522 lung = system: NCI-H522 lung
# SK-MEL-28 melanoma = system: SK-MEL-28 melanoma
# ACHN renal = system: ACHN renal
# CAKI-1 renal = system: CAKI-1 renal
# SK-OV-3 ovarian = system: SK-OV-3 ovarian
# MDA-MB-435 = system: MDA-MB-435
# RXF 393 renal = system: RXF 393 renal
# HCT-116 colon = system: HCT-116 colon
# U251 CNS = system: U251 CNS
# SK-MEL-5 melanoma = system: SK-MEL-5 melanoma
# KM12 colon = system: KM12 colon
# SN12C renal = system: SN12C renal
# SK-MEL-2 melanoma = system: SK-MEL-2 melanoma
# HT29 colon = system: HT29 colon
# OVCAR-8 ovarian = system: OVCAR-8 ovarian
# HCT-15 colon = system: HCT-15 colon
# CCRF-CEM leukemia = system: CCRF-CEM leukemia
# NCI-H23 lung = system: NCI-H23 lung
# DU-145 prostate = system: DU-145 prostate
# HOP-62 NSCLC = system: HOP-62 NSCLC
# HS 578T breast = system: HS 578T breast
# 786-0 renal = system: 786-0 renal
# SR leukemia = system: SR leukemia
# HOP-92 NSCLC = system: HOP-92 NSCLC
# OVCAR-4 ovarian = system: OVCAR-4 ovarian
# MALME-3M melanoma = system: MALME-3M melanoma
# A498 renal = system: A498 renal
# RPMI-8226 leukemia = system: RPMI-8226 leukemia
# SNB-75 CNS = system: SNB-75 CNS
# NCI-H226 lung = system: NCI-H226 lung
# SW-620 colon = system: SW-620 colon
# UO-31 renal = system: UO-31 renal
# HL-60(TB) leukemia = system: HL-60(TB) leukemia
# UACC-62 melanoma = system: UACC-62 melanoma
# PC-3 prostate = system: PC-3 prostate
# MDA-MB-231 breast = system: MDA-MB-231 breast
# NCI-H460 lung = system: NCI-H460 lung
# SF-268 CNS = system: SF-268 CNS
# MOLT-4 leukemia = system: MOLT-4 leukemia
# SNB-19 CNS = system: SNB-19 CNS
smiles,measurement,setting,value
CC(=O)c1ccc(Nc2cc(-c3ccccc3)nc3c(O)cccc23)cc1,GI50,NCI/ADR-RES ovarian,5.53 µM
same,TGI,NCI/ADR-RES ovarian,34.9 µM
same,GI50,OVCAR-3 ovarian,> 100000 nM
same,TGI,OVCAR-3 ovarian,> 100000 nM
same,GI50,LOX IMVI melanoma,14.5 µM
same,TGI,LOX IMVI melanoma,> 100000 nM
same,GI50,HCC-2998 colon,13.7 µM
same,TGI,HCC-2998 colon,36.7 µM
same,GI50,UACC-257 melanoma,21 µM
same,TGI,UACC-257 melanoma,53.4 µM
same,GI50,TK-10 renal,18.1 µM
same,TGI,TK-10 renal,84.8 µM
same,GI50,M14 melanoma,4580 nM
same,TGI,M14 melanoma,33.9 µM
same,GI50,A549 NSCLC,30.6 µM
same,TGI,A549 NSCLC,> 100 µM
same,GI50,IGROV1 ovarian,2570 nM
same,TGI,IGROV1 ovarian,13.4 µM
same,GI50,EKVX NSCLC,28.7 µM
same,TGI,EKVX NSCLC,> 100 µM
same,GI50,COLO 205 colon,32.1 µM
same,TGI,COLO 205 colon,> 100000 nM
same,GI50,SF-295 CNS,37.2 µM
same,TGI,SF-295 CNS,> 100 µM
same,GI50,K-562 leukemia,4730 nM
same,TGI,K-562 leukemia,> 100 µM
same,GI50,SF-539 CNS,21.5 µM
same,TGI,SF-539 CNS,68.4 µM
same,GI50,BT-549 breast,28.7 µM
same,TGI,BT-549 breast,> 100000 nM
same,GI50,OVCAR-5 ovarian,54.5 µM
same,TGI,OVCAR-5 ovarian,> 100 µM
same,GI50,T-47D breast,16.6 µM
same,TGI,T-47D breast,63.7 µM
same,GI50,NCI-H522 lung,2980 nM
same,TGI,NCI-H522 lung,9.64 µM
same,GI50,SK-MEL-28 melanoma,23.1 µM
same,TGI,SK-MEL-28 melanoma,88.8 µM
same,GI50,ACHN renal,20.5 µM
same,TGI,ACHN renal,74.1 µM
same,GI50,CAKI-1 renal,41.3 µM
same,TGI,CAKI-1 renal,> 100000 nM
same,GI50,SK-OV-3 ovarian,57.1 µM
same,TGI,SK-OV-3 ovarian,> 100 µM
same,GI50,MDA-MB-435,23.6 µM
same,TGI,MDA-MB-435,65.3 µM
same,GI50,RXF 393 renal,17.4 µM
same,TGI,RXF 393 renal,60.3 µM
same,GI50,HCT-116 colon,5.79 µM
same,TGI,HCT-116 colon,90.2 µM
same,GI50,U251 CNS,9.44 µM
same,TGI,U251 CNS,> 100000 nM
same,GI50,SK-MEL-5 melanoma,13 µM
same,TGI,SK-MEL-5 melanoma,26.7 µM
same,GI50,KM12 colon,5.72 µM
same,TGI,KM12 colon,> 100000 nM
same,GI50,SN12C renal,24.7 µM
same,TGI,SN12C renal,58.2 µM
same,GI50,SK-MEL-2 melanoma,13.2 µM
same,TGI,SK-MEL-2 melanoma,40.4 µM
same,GI50,HT29 colon,20.7 µM
same,TGI,HT29 colon,43 µM
same,GI50,OVCAR-8 ovarian,19 µM
same,TGI,OVCAR-8 ovarian,> 100 µM
same,GI50,HCT-15 colon,8.31 µM
same,TGI,HCT-15 colon,> 100000 nM
same,GI50,CCRF-CEM leukemia,5050 nM
same,TGI,CCRF-CEM leukemia,34.6 µM
same,GI50,NCI-H23 lung,12.5 µM
same,TGI,NCI-H23 lung,64.7 µM
same,GI50,DU-145 prostate,21.8 µM
same,TGI,DU-145 prostate,> 100 µM
same,GI50,HOP-62 NSCLC,10.6 µM
same,TGI,HOP-62 NSCLC,36 µM
same,GI50,HS 578T breast,27 µM
same,TGI,HS 578T breast,> 100 µM
same,GI50,786-0 renal,8.8 µM
same,TGI,786-0 renal,83.4 µM
same,GI50,SR leukemia,1590 nM
same,TGI,SR leukemia,49.5 µM
same,GI50,HOP-92 NSCLC,13.7 µM
same,TGI,HOP-92 NSCLC,50.5 µM
same,GI50,OVCAR-4 ovarian,18.2 µM
same,TGI,OVCAR-4 ovarian,64.7 µM
same,GI50,MALME-3M melanoma,19.6 µM
same,TGI,MALME-3M melanoma,68.3 µM
same,GI50,A498 renal,25.3 µM
same,TGI,A498 renal,71.7 µM
same,GI50,RPMI-8226 leukemia,8.8 µM
same,TGI,RPMI-8226 leukemia,46.8 µM
same,GI50,SNB-75 CNS,17.9 µM
same,TGI,SNB-75 CNS,50.5 µM
same,GI50,NCI-H226 lung,28.2 µM
same,TGI,NCI-H226 lung,> 100 µM
same,GI50,SW-620 colon,7.06 µM
same,TGI,SW-620 colon,> 100000 nM
same,GI50,UO-31 renal,14 µM
same,TGI,UO-31 renal,53.9 µM
same,GI50,HL-60(TB) leukemia,3130 nM
same,TGI,HL-60(TB) leukemia,30.6 µM
same,GI50,UACC-62 melanoma,12.7 µM
same,TGI,UACC-62 melanoma,29.6 µM
same,GI50,PC-3 prostate,8.62 µM
same,TGI,PC-3 prostate,> 100000 nM
same,GI50,MDA-MB-231 breast,24 µM
same,TGI,MDA-MB-231 breast,55.7 µM
N#Cc1c(NC(=O)c2cccc(C(F)(F)F)c2)sc2c1CCC(=O)C2,GI50,NCI/ADR-RES ovarian,1.62 µM
same,TGI,NCI/ADR-RES ovarian,7.77 µM
same,GI50,OVCAR-3 ovarian,418 nM
same,TGI,OVCAR-3 ovarian,1520 nM
same,GI50,LOX IMVI melanoma,0.369 µM
same,TGI,LOX IMVI melanoma,1680 nM
same,GI50,HCC-2998 colon,1.61 µM
same,TGI,HCC-2998 colon,3.37 µM
same,GI50,UACC-257 melanoma,0.728 µM
same,TGI,UACC-257 melanoma,3.85 µM
same,GI50,TK-10 renal,0.543 µM
same,TGI,TK-10 renal,2.34 µM
same,GI50,NCI-H460 lung,1190 nM
same,GI50,M14 melanoma,525 nM
same,TGI,M14 melanoma,2.22 µM
same,GI50,A549 NSCLC,1.88 µM
same,TGI,A549 NSCLC,6.03 µM
same,GI50,IGROV1 ovarian,582 nM
same,TGI,IGROV1 ovarian,2.09 µM
same,GI50,EKVX NSCLC,1.67 µM
same,TGI,EKVX NSCLC,4.26 µM
same,GI50,COLO 205 colon,0.289 µM
same,TGI,COLO 205 colon,809 nM
same,GI50,SF-295 CNS,0.845 µM
same,TGI,SF-295 CNS,3.88 µM
same,GI50,K-562 leukemia,217 nM
same,GI50,SF-539 CNS,0.329 µM
same,TGI,SF-539 CNS,1.23 µM
same,GI50,BT-549 breast,0.419 µM
same,TGI,BT-549 breast,2060 nM
same,GI50,OVCAR-5 ovarian,1.14 µM
same,TGI,OVCAR-5 ovarian,3.97 µM
same,GI50,T-47D breast,0.297 µM
same,TGI,T-47D breast,1.97 µM
same,GI50,NCI-H522 lung,315 nM
same,TGI,NCI-H522 lung,1.65 µM
same,GI50,SK-MEL-28 melanoma,0.526 µM
same,TGI,SK-MEL-28 melanoma,1.92 µM
same,GI50,ACHN renal,0.327 µM
same,TGI,ACHN renal,0.985 µM
same,GI50,CAKI-1 renal,0.287 µM
same,TGI,CAKI-1 renal,1000 nM
same,GI50,SF-268 CNS,910 nM
same,TGI,SF-268 CNS,5.9 µM
same,GI50,SK-OV-3 ovarian,2.3 µM
same,TGI,SK-OV-3 ovarian,6.19 µM
same,GI50,MDA-MB-435,0.651 µM
same,TGI,MDA-MB-435,2.11 µM
same,GI50,RXF 393 renal,0.391 µM
same,TGI,RXF 393 renal,1.45 µM
same,GI50,HCT-116 colon,0.336 µM
same,TGI,HCT-116 colon,1.56 µM
same,GI50,U251 CNS,0.352 µM
same,TGI,U251 CNS,1580 nM
same,GI50,SK-MEL-5 melanoma,1.3 µM
same,TGI,SK-MEL-5 melanoma,2.65 µM
same,GI50,KM12 colon,0.477 µM
same,TGI,KM12 colon,1950 nM
same,GI50,SN12C renal,0.851 µM
same,TGI,SN12C renal,4.05 µM
same,GI50,SK-MEL-2 melanoma,2.3 µM
same,TGI,SK-MEL-2 melanoma,6.35 µM
same,GI50,HT29 colon,0.367 µM
same,TGI,HT29 colon,2.47 µM
same,GI50,OVCAR-8 ovarian,1.15 µM
same,TGI,OVCAR-8 ovarian,6.97 µM
same,GI50,MOLT-4 leukemia,350 nM
same,TGI,MOLT-4 leukemia,> 32.2 µM
same,GI50,HCT-15 colon,0.337 µM
same,TGI,HCT-15 colon,1660 nM
same,GI50,CCRF-CEM leukemia,262 nM
same,TGI,CCRF-CEM leukemia,> 100 µM
same,GI50,NCI-H23 lung,0.379 µM
same,TGI,NCI-H23 lung,2.88 µM
same,GI50,DU-145 prostate,3.3 µM
same,TGI,DU-145 prostate,> 100 µM
same,GI50,HOP-62 NSCLC,1.76 µM
same,TGI,HOP-62 NSCLC,> 26.4 µM
same,GI50,HS 578T breast,0.542 µM
same,TGI,HS 578T breast,3.77 µM
same,GI50,786-0 renal,0.716 µM
same,TGI,786-0 renal,5.85 µM
same,GI50,SR leukemia,347 nM
same,TGI,SR leukemia,> 31.8 µM
same,GI50,HOP-92 NSCLC,1.02 µM
same,TGI,HOP-92 NSCLC,3.06 µM
same,GI50,OVCAR-4 ovarian,0.298 µM
same,TGI,OVCAR-4 ovarian,0.952 µM
same,GI50,MALME-3M melanoma,0.326 µM
same,TGI,MALME-3M melanoma,1.12 µM
same,GI50,A498 renal,1.71 µM
same,TGI,A498 renal,5.5 µM
same,GI50,RPMI-8226 leukemia,0.239 µM
same,TGI,RPMI-8226 leukemia,0.869 µM
same,GI50,SNB-75 CNS,1.19 µM
same,TGI,SNB-75 CNS,3.13 µM
same,GI50,NCI-H226 lung,1.55 µM
same,TGI,NCI-H226 lung,5.02 µM
same,GI50,SW-620 colon,0.3 µM
same,TGI,SW-620 colon,1830 nM
same,GI50,SNB-19 CNS,445 nM
same,TGI,SNB-19 CNS,2360 nM
same,GI50,UO-31 renal,0.355 µM
same,TGI,UO-31 renal,1.38 µM
same,GI50,HL-60(TB) leukemia,576 nM
same,TGI,HL-60(TB) leukemia,3.56 µM
same,GI50,UACC-62 melanoma,0.495 µM
same,TGI,UACC-62 melanoma,2.14 µM
same,GI50,PC-3 prostate,0.292 µM
same,TGI,PC-3 prostate,1410 nM
same,GI50,MDA-MB-231 breast,1.39 µM
same,TGI,MDA-MB-231 breast,3.31 µM
